Common to all, as to format: cell-based
One data set concerns HIV-1 strain LAI. In words: Cellular anti-HIV assay (MT4/MTT), wild type. The settings on record: Human immunodeficiency virus 1; wild type HIV-1 strain LAI, MT4 cells; read-out: WT (pEC50) (converted). As to the method: The compounds of the present invention were examined for anti-viral activity in a cellular assay. […] The cellular assay was performed according to the following procedure. HIV- or mock-infected MT4 cells were incubated for five days in the presence of various concentrations of the inhibitor. […] Cell viability is measured by measuring the concentration of MTT, a yellow, water soluble tetrazolium dye that is converted to a purple, water insoluble formazan in the mitochondria of living cells only. Upon solubilization of the resulting formazan crystals with isopropanol, the absorbance of the solution is monitored at 540 nm. The values correlate directly to the number of living cells remaining in the culture at the completion of the five-day incubation. The inhibitory activity of the compound was monitored on the virus-infected cells and was expressed as EC50 and EC90. These values represent the amount of the compound required to protect 50% and 90%, respectively, of the cells from the cytopathogenic effect of the virus. […] The selectivity index (SI) (ratio CC50/EC50) is an indication of the selectivity of the anti-HIV activity of the inhibitor. Wherever results are reported as e.g. pEC50 or pCC50 values, the result is expressed as the negative logarithm of the result expressed as EC50 or CC50 respectively.

A further data set has as its system mutant HIV strain E. In words: microbe, parasite or virus in culture. The settings on record: for fold resistance Strain E: FR=EC50 (mutant strain)/EC50 (HIV-1 strain LAI); for EC50: Human immunodeficiency virus 1, MT4, read-out: pEC50 Strain E, mutant HIV strain E, MT4 cells (converted). As to the method: (§1) HIV- or mock-infected MT4 cells were incubated for five days in the presence of various concentrations of the inhibitor. […] Cell viability is measured by measuring the concentration of MTT, a yellow, water soluble tetrazolium dye that is converted to a purple, water insoluble formazan in the mitochondria of living cells only. Upon solubilization of the resulting formazan crystals with isopropanol, the absorbance of the solution is monitored at 540 nm. The values correlate directly to the number of living cells remaining in the culture at the completion of the five-day incubation. The inhibitory activity of the compound was monitored on the virus-infected cells and was expressed as EC50 and EC90. These values represent the amount of the compound required to protect 50% and 90%, respectively, of the cells from the cytopathogenic effect of the virus. […] The selectivity index (SI) (ratio CC50/EC50) is an indication of the selectivity of the anti-HIV activity of the inhibitor. Wherever results are reported as e.g. pEC50 or pCC50 values, the result is expressed as the negative logarithm of the result expressed as EC50 or CC50 respectively.

Another data set relates to mutant HIV strain A. In words: microbe, parasite or virus in culture. To be noted: for fold resistance Strain A: FR=EC50 (mutant strain)/EC50 (HIV-1 strain LAI); for EC50: Human immunodeficiency virus 1, MT4, read-out: pEC50 Strain A, mutant HIV strain A, MT4 cells (converted). The protocol: as §1
A further data set has as its system mutant HIV strain D. In words: microbe, parasite or virus in culture. To be noted: for fold resistance Strain D: FR=EC50 (mutant strain)/EC50 (HIV-1 strain LAI); for EC50: Human immunodeficiency virus 1, MT4, read-out: pEC50 Strain D, mutant HIV strain D, MT4 cells (converted). As to the method: as §1
The next data set has as its system mutant HIV strain B. In words: microbe, parasite or virus in culture. The settings on record: for fold resistance Strain B: FR=EC50 (mutant strain)/EC50 (HIV-1 strain LAI); for EC50: Human immunodeficiency virus 1, MT4, read-out: pEC50 Strain B, mutant HIV strain B, MT4 cells (converted). As to the method:
as §1

Another data set relates to mutant HIV strain F. In words: microbe, parasite or virus in culture. The settings on record: for fold resistance Strain F: FR=EC50 (mutant strain)/EC50 (HIV-1 strain LAI); for EC50: Human immunodeficiency virus 1, MT4, read-out: pEC50 Strain F, mutant HIV strain F, MT4 cells (converted). As to the method: as §1
The test system of a further data set is mutant HIV strain C. In words: microbe, parasite or virus in culture. To be noted: for fold resistance Strain C: FR=EC50 (mutant strain)/EC50 (HIV-1 strain LAI); for EC50: Human immunodeficiency virus 1, MT4, read-out: pEC50 Strain C, mutant HIV strain C, MT4 cells (converted). The protocol: as §1
Data set [1] in a line: Toxicity on mock-infected cells (MTT). To be noted: human. As to the method:
HIV- or mock-infected MT4 cells were incubated for five days in the presence of various concentrations of the inhibitor. At the end of the incubation period, the replicating virus in the control cultures has killed all HIV-infected cells in the absence of any inhibitor. Cell viability is measured by measuring the concentration of MTT, a yellow, water soluble tetrazolium dye that is converted to a purple, water insoluble formazan in the mitochondria of living cells only. Upon solubilization of the resulting formazan crystals with isopropanol, the absorbance of the solution is monitored at 540 nm. The values correlate directly to the number of living cells remaining in the culture at the completion of the five-day incubation. The inhibitory activity of the compound was monitored on the virus-infected cells and was expressed as EC50 and EC90. These values represent the amount of the compound required to protect 50% and 90%, respectively, of the cells from the cytopathogenic effect of the virus. […] The selectivity index (SI) (ratio CC50/EC50) is an indication of the selectivity of the anti-HIV activity of the inhibitor. Wherever results are reported as e.g. pEC50 or pCC50 values, the result is expressed as the negative logarithm of the result expressed as EC50 or CC50 respectively.

By CC50 is commonly meant the concentration at which the toxic effect on the cells reaches its halfway point. Higher therefore signals lower toxicity to the cells.

Turning to `CC(C)CN(C[C@@H](O)[C@H](Cc1ccccc1)NC(=O)OCc1ccccc1)S(=O)(=O)c1ccc2nc(N)sc2c1` [Compound 7, {(1S,2R)-3-[(2-amino-benzothiazole-6-sulfonyl)-isobutyl-amino]-1-benzyl-2-hydroxypropyl}-carbamic acid benzyl ester], the EC50 in the data set on HIV-1 strain LAI is 5.89 nM. In the data set with mutant HIV strain E, the “fold resistance Strain E” value is 7.4 and the EC50 is 43.7 nM. Besides, in the data set with mutant HIV strain A, the “fold resistance Strain A” value was 72.4 and the EC50 was 427 nM. Also, in the data set with mutant HIV strain D, the “fold resistance Strain D” value stood at 20.0 and the EC50 is 117 nM. In addition, in the data set on mutant HIV strain B, the “fold resistance Strain B” value is 5.0 and the EC50 was 29.5 nM. In the data set on mutant HIV strain F, the “fold resistance Strain F” value was 131.8 and the EC50 was 776 nM. For the same compound, in the data set on mutant HIV strain C, the “fold resistance Strain C” value is listed as 5.5 and the EC50 was 32.4 nM. In addition, in data set [1], the CC50 at 5 days was 46800 nM.
For `Cc1cccc(C)c1OCC(=O)N[C@@H](Cc1ccccc1)[C@H](O)CN(CC(C)C)S(=O)(=O)c1ccc2nc(N)sc2c1` [Compound 8, N-{(1S,2R)-3-[(2-amino-benzothiazole-6-sulfonyl)-isobutyl-amino]-1-benzyl-2-hydroxypropyl}-2-(2,6-dimethyl-phenoxy)-acetamide], the EC50 with HIV-1 strain LAI is 6.61 nM. Moreover, in the data set on mutant HIV strain E, the “fold resistance Strain E” value was 4.2 and the EC50 was 27.5 nM. Also, in the data set on mutant HIV strain A, the “fold resistance Strain A” value is recorded as 4.8 and the EC50 is 31.6 nM. Also, in the data set with mutant HIV strain D, the “fold resistance Strain D” value is 5.1 and the EC50 is 33.9 nM. For the same compound, in the data set with mutant HIV strain B, the “fold resistance Strain B” value is 2.0 and the EC50 was 13.5 nM. Besides, in the data set with mutant HIV strain F, the “fold resistance Strain F” value worked out at 21.4 and the EC50 is 141 nM. In the data set on mutant HIV strain C, the “fold resistance Strain C” value turned out to be 3.9 and the EC50 was 25.7 nM. In data set [1], this compound had a CC50 at 5 days above 10000 nM.
For the compound `Cc1c(N)cccc1C(=O)N[C@@H](Cc1ccccc1)[C@H](O)CN(CC(C)C)S(=O)(=O)c1ccc2nc(N)sc2c1` [Compound 10, 3-amino-N-{(1S,2R)-3-[(2-amino-benzothiazole-6-sulfonyl)-isobutyl-amino]-1-benzyl-2-hydroxypropyl}-2-methyl-benzamide], the EC50 with HIV-1 strain LAI is 9.12 nM. In the data set on mutant HIV strain E, the “fold resistance Strain E” value turned out to be 1.4 and the EC50 is 13.2 nM. In the data set on mutant HIV strain A, the “fold resistance Strain A” value worked out at 9.3 and the EC50 is 85.1 nM. In the data set on mutant HIV strain D, the “fold resistance Strain D” value was 2.5 and the EC50 was 22.9 nM. Further, in the data set with mutant HIV strain B, the “fold resistance Strain B” value was determined as 1.0 and the EC50 was 9.33 nM. In addition, in the data set on mutant HIV strain F, the “fold resistance Strain F” value is 9.5 and the EC50 was 87.1 nM. In addition, in the data set on mutant HIV strain C, the “fold resistance Strain C” value was 1.7 and the EC50 was 15.8 nM. For the same compound, the CC50 at 5 days in data set [1] is 72400 nM.
Regarding `Cc1c(O)cccc1C(=O)N[C@@H](Cc1ccccc1)[C@H](O)CN(CC(C)C)S(=O)(=O)c1ccc2nc(N)sc2c1` [Compound 11, N-{(1S,2R)-3-[(2-amino-benzothiazole-6-sulfonyl)-isobutyl-amino]-1-benzyl-2-hydroxypropyl}-3-hydroxy-2-methyl-benzamide], the EC50 with HIV-1 strain LAI was 14.5 nM. In addition, in the data set with mutant HIV strain E, the “fold resistance Strain E” value was found to be 0.5 and the EC50 is 7.24 nM. Further, in the data set on mutant HIV strain A, the “fold resistance Strain A” value is on record as 7.8 and the EC50 was 112 nM. For the same compound, in the data set on mutant HIV strain D, the “fold resistance Strain D” value amounted to 0.6 and the EC50 was 8.32 nM. In the data set on mutant HIV strain B, the “fold resistance Strain B” value was determined as 0.5 and the EC50 was 7.24 nM. For the same compound, in the data set with mutant HIV strain F, the “fold resistance Strain F” value amounted to 7.1 and the EC50 is 102 nM. In the data set on mutant HIV strain C, the “fold resistance Strain C” value stood at 0.5 and the EC50 is 7.59 nM. For the same compound, in data set [1], the CC50 at 5 days is 57500 nM.
